The source of these data is the supplement of paper PMC11208160.
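Also: IS621 bridge recombinase in Escherichia coli cells against a fixed T5 target plasmid.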

A short description of this data set: recombinant UMI read abundance after kanamycin selection (control-corrected) (log10(CPM+1)); higher = more efficient recombination; extreme values may be limits of the assay; sequences stand for … in AGTGCAGAGAAAATCGGCCAGTTTTCTCTGCCTGCAGTCCGCATGCCGTGGGACCCCTTGGGTTCTAACCTGTTGCCTAGATTTATGCAGCGGACTGCCTTTCTCCCAAAGTGATAAACCGG…AGGTTGGTTTCACT; site = the 11-nt donor. An outline of the steps:
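After plating on IPTG (0.07 mM) plus kanamycin, or unselected, in two replicates, recombinant UMIs were PCR-amplified across the donor–target junction and sequenced. The cells were Escherichia coli co-electroporated with a UMI-tagged donor and donor-binding-loop pair library and a target plasmid with a fixed target and T7-inducible IS621 bridge recombinase. Values are log10(CPM+1), with CPM averaged over replicates and scaled by control-derived factors.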
Regarding “CAAGTGCCATGGACCGGTTTTCCCGGTAATCCGTATTTGTG (site CAAGTGCCTCA)”, the “recombinant UMI read abundance (log10)” value was 0.662.

As for “CAATCGACATGGACCGGTTTTCCCGGTAATCCGTATTTGGG (site CAATCGACTCC)”, the “recombinant UMI read abundance (log10)” value is 0.0993.

Take “CAATCGACATGGACCGGTTTTCCCGGTAATCCGTATTTGGG (site CACTCGACTCC)”: the “recombinant UMI read abundance (log10)” value amounted to 0.335.

“CAATCGACATGGACCGGTTTTCCCGGTAATCCGTATTTGGG (site CAGTCGACTCC)”: the “recombinant UMI read abundance (log10)” value was determined as 0.

Turning to “CAATCGACATGGACCGGTTTTCCCGGTAATCCGTATTTGGG (site CATTCGACTCC)”, the “recombinant UMI read abundance (log10)” value is 0.0172.

Consider “CAATCGACATGGACCGGTTTTCCCGGTAATCCGTATTTGTT (site CAATCGACTAA)”, for which the “recombinant UMI read abundance (log10)” value amounted to 0.347.

For “CAATCGACATGGACCGGTTTTCCCGGTAATCCGTATTTGTT (site CCATCGACTAA)”, the “recombinant UMI read abundance (log10)” value stood at 0.0214.

On to “CAATCGACATGGACCGGTTTTCCCGGTAATCCGTATTTGTT (site CGATCGACTAA)”, for which the “recombinant UMI read abundance (log10)” value was found to be 0.0271.

As to “CAATCGACATGGACCGGTTTTCCCGGTAATCCGTATTTGTT (site CTATCGACTAA)”, the “recombinant UMI read abundance (log10)” value turned out to be 0.0699.

As for “CAATGCTCATGGACCGGTTTTCCCGGTAATCCGTATTTGAA (site AAATGCTCTTT)”, the “recombinant UMI read abundance (log10)” value was 0.129.

On to “CAATGCTCATGGACCGGTTTTCCCGGTAATCCGTATTTGAA (site CAAAGCTCTTT)”, for which the “recombinant UMI read abundance (log10)” value amounted to 0.393.

With “CAATGCTCATGGACCGGTTTTCCCGGTAATCCGTATTTGAA (site CAACGCTCTTT)”, the “recombinant UMI read abundance (log10)” value amounted to 1.58.

Consider “CAATGCTCATGGACCGGTTTTCCCGGTAATCCGTATTTGAA (site CAAGGCTCTTT)”, for which the “recombinant UMI read abundance (log10)” value was found to be 0.0098.

“CAATGCTCATGGACCGGTTTTCCCGGTAATCCGTATTTGAA (site CAATACTCTTT)”: the “recombinant UMI read abundance (log10)” value came to 1.94.

For the sequence “CAATGCTCATGGACCGGTTTTCCCGGTAATCCGTATTTGAA (site CAATCCTCTTT)”, the “recombinant UMI read abundance (log10)” value turned out to be 0.0831.

Regarding “CAATGCTCATGGACCGGTTTTCCCGGTAATCCGTATTTGAA (site CAATGATCTTT)”, the “recombinant UMI read abundance (log10)” value stood at 0.389.

Take “CAATGCTCATGGACCGGTTTTCCCGGTAATCCGTATTTGAA (site CAATGCACTTT)”: the “recombinant UMI read abundance (log10)” value was determined as 0.182.

Consider “CAATGCTCATGGACCGGTTTTCCCGGTAATCCGTATTTGAA (site CAATGCCCTTT)”, for which the “recombinant UMI read abundance (log10)” value was 1.25.

For “CAATGCTCATGGACCGGTTTTCCCGGTAATCCGTATTTGAA (site CAATGCGCTTT)”, the “recombinant UMI read abundance (log10)” value amounted to 0.0142.

Regarding “CAATGCTCATGGACCGGTTTTCCCGGTAATCCGTATTTGAA (site CAATGCTCTAT)”, the “recombinant UMI read abundance (log10)” value was 1.03.

“CAATGCTCATGGACCGGTTTTCCCGGTAATCCGTATTTGAA (site CAATGCTCTCT)”: the “recombinant UMI read abundance (log10)” value worked out at 0.924.

For the sequence “CAATGCTCATGGACCGGTTTTCCCGGTAATCCGTATTTGAA (site CAATGCTCTGT)”, the “recombinant UMI read abundance (log10)” value stood at 0.818.

With “CAATGCTCATGGACCGGTTTTCCCGGTAATCCGTATTTGAA (site CAATGCTCTTA)”, the “recombinant UMI read abundance (log10)” value was 0.908.

With “CAATGCTCATGGACCGGTTTTCCCGGTAATCCGTATTTGAA (site CAATGCTCTTC)”, the “recombinant UMI read abundance (log10)” value came out at 0.687.

Take “CAATGCTCATGGACCGGTTTTCCCGGTAATCCGTATTTGAA (site CAATGCTCTTG)”: the “recombinant UMI read abundance (log10)” value worked out at 0.554.

For the sequence “CAATGCTCATGGACCGGTTTTCCCGGTAATCCGTATTTGAA (site CAATGCTCTTT)”, the “recombinant UMI read abundance (log10)” value came to 2.57.

Regarding “CAATGCTCATGGACCGGTTTTCCCGGTAATCCGTATTTGAA (site CAATGGTCTTT)”, the “recombinant UMI read abundance (log10)” value was determined as 0.0124.

Turning to “CAATGCTCATGGACCGGTTTTCCCGGTAATCCGTATTTGAA (site CAATGTTCTTT)”, the “recombinant UMI read abundance (log10)” value was found to be 0.

Consider “CAATGCTCATGGACCGGTTTTCCCGGTAATCCGTATTTGAA (site CAATTCTCTTT)”, for which the “recombinant UMI read abundance (log10)” value stood at 0.

In the case of “CAATGCTCATGGACCGGTTTTCCCGGTAATCCGTATTTGAA (site CACTGCTCTTT)”, the “recombinant UMI read abundance (log10)” value worked out at 0.0585.

Turning to “CAATGCTCATGGACCGGTTTTCCCGGTAATCCGTATTTGAA (site CAGTGCTCTTT)”, the “recombinant UMI read abundance (log10)” value amounted to 0.102.

“CAATGCTCATGGACCGGTTTTCCCGGTAATCCGTATTTGAA (site CATTGCTCTTT)”: the “recombinant UMI read abundance (log10)” value was 0.408.

With “CAATGCTCATGGACCGGTTTTCCCGGTAATCCGTATTTGAA (site CCATGCTCTTT)”, the “recombinant UMI read abundance (log10)” value turned out to be 0.461.

Turning to “CAATGCTCATGGACCGGTTTTCCCGGTAATCCGTATTTGAA (site CGATGCTCTTT)”, the “recombinant UMI read abundance (log10)” value stood at 0.0125.

“CAATGCTCATGGACCGGTTTTCCCGGTAATCCGTATTTGAA (site CTATGCTCTTT)”: the “recombinant UMI read abundance (log10)” value was determined as 0.217.

For “CAATGCTCATGGACCGGTTTTCCCGGTAATCCGTATTTGAA (site GAATGCTCTTT)”, the “recombinant UMI read abundance (log10)” value worked out at 0.00437.

Take “CAATGCTCATGGACCGGTTTTCCCGGTAATCCGTATTTGAA (site TAATGCTCTTT)”: the “recombinant UMI read abundance (log10)” value came out at 0.0133.

In the case of “CAATGCTCATGGACCGGTTTTCCCGGTAATCCGTATTTGTA (site CAATGCTCTTA)”, the “recombinant UMI read abundance (log10)” value was determined as 3.1.

Consider “CAATGCTCATGGACCGGTTTTCCCGGTAATCCGTATTTGTA (site CAATGCTCTTC)”, for which the “recombinant UMI read abundance (log10)” value was determined as 0.746.

As to “CAATGCTCATGGACCGGTTTTCCCGGTAATCCGTATTTGTA (site CAATGCTCTTG)”, the “recombinant UMI read abundance (log10)” value was 2.25.

Turning to “CAATGCTCATGGACCGGTTTTCCCGGTAATCCGTATTTGTA (site CAATGCTCTTT)”, the “recombinant UMI read abundance (log10)” value came to 1.55.

Regarding “CAATTCCCATGGACCGGTTTTCCCGGTAATCCGTATTTGAT (site CAATTCCCTAA)”, the “recombinant UMI read abundance (log10)” value came out at 0.00345.

Consider “CAATTCCCATGGACCGGTTTTCCCGGTAATCCGTATTTGAT (site CAATTCCCTAC)”, for which the “recombinant UMI read abundance (log10)” value worked out at 0.

As to “CAATTCCCATGGACCGGTTTTCCCGGTAATCCGTATTTGAT (site CAATTCCCTAG)”, the “recombinant UMI read abundance (log10)” value is 0.

Turning to “CAATTCCCATGGACCGGTTTTCCCGGTAATCCGTATTTGAT (site CAATTCCCTAT)”, the “recombinant UMI read abundance (log10)” value was determined as 1.7.

In the case of “CAATTCCCATGGACCGGTTTTCCCGGTAATCCGTATTTGCG (site CAATTCCCTAG)”, the “recombinant UMI read abundance (log10)” value was 1.26.

For the sequence “CAATTCCCATGGACCGGTTTTCCCGGTAATCCGTATTTGCG (site CAATTCCCTCG)”, the “recombinant UMI read abundance (log10)” value amounted to 2.33.

As for “CAATTCCCATGGACCGGTTTTCCCGGTAATCCGTATTTGCG (site CAATTCCCTGG)”, the “recombinant UMI read abundance (log10)” value was determined as 0.

Consider “CAATTCCCATGGACCGGTTTTCCCGGTAATCCGTATTTGCG (site CAATTCCCTTG)”, for which the “recombinant UMI read abundance (log10)” value amounted to 1.67.

As to “CAATTGCCATGGACCGGTTTTCCCGGTAATCCGTATTTGCT (site CAATTACCTAG)”, the “recombinant UMI read abundance (log10)” value was found to be 0.

With “CAATTGCCATGGACCGGTTTTCCCGGTAATCCGTATTTGCT (site CAATTCCCTAG)”, the “recombinant UMI read abundance (log10)” value was 0.

Regarding “CAATTGCCATGGACCGGTTTTCCCGGTAATCCGTATTTGCT (site CAATTGCCTAG)”, the “recombinant UMI read abundance (log10)” value came to 1.32.

“CAATTGCCATGGACCGGTTTTCCCGGTAATCCGTATTTGCT (site CAATTTCCTAG)”: the “recombinant UMI read abundance (log10)” value was 0.

Turning to “CACAAAACATGGACCGGTTTTCCCGGTAATCCGTATTTGGC (site CACAAAACTGC)”, the “recombinant UMI read abundance (log10)” value turned out to be 1.79.

Take “CACAAACCATGGACCGGTTTTCCCGGTAATCCGTATTTGGT (site AACAAACCTAC)”: the “recombinant UMI read abundance (log10)” value stood at 0.

As for “CACAAACCATGGACCGGTTTTCCCGGTAATCCGTATTTGGT (site CACAAACCTAC)”, the “recombinant UMI read abundance (log10)” value amounted to 0.

Regarding “CACAAACCATGGACCGGTTTTCCCGGTAATCCGTATTTGGT (site GACAAACCTAC)”, the “recombinant UMI read abundance (log10)” value is 0.

On to “CACAAACCATGGACCGGTTTTCCCGGTAATCCGTATTTGGT (site TACAAACCTAC)”, for which the “recombinant UMI read abundance (log10)” value was determined as 0.

Turning to “CACACATCATGGACCGGTTTTCCCGGTAATCCGTATTTGCC (site CACACATCTGG)”, the “recombinant UMI read abundance (log10)” value turned out to be 2.15.

“CACACCTCATGGACCGGTTTTCCCGGTAATCCGTATTTGGC (site CACACCTCTGC)”: the “recombinant UMI read abundance (log10)” value was determined as 3.07.

Take “CACACTGCATGGACCGGTTTTCCCGGTAATCCGTATTTGTA (site CACACTGCTTA)”: the “recombinant UMI read abundance (log10)” value came out at 1.72.

Take “CACAGATCATGGACCGGTTTTCCCGGTAATCCGTATTTGAT (site CACAGATCTAT)”: the “recombinant UMI read abundance (log10)” value amounted to 2.37.

For “CACATGGCATGGACCGGTTTTCCCGGTAATCCGTATTTGTA (site CACATGGCTTA)”, the “recombinant UMI read abundance (log10)” value came out at 2.31.

Take “CACCAGTCATGGACCGGTTTTCCCGGTAATCCGTATTTGAC (site CACCAGTCTGT)”: the “recombinant UMI read abundance (log10)” value turned out to be 0.85.

As to “CACCGTACATGGACCGGTTTTCCCGGTAATCCGTATTTGCG (site CACCGTACTCG)”, the “recombinant UMI read abundance (log10)” value turned out to be 1.35.

Consider “CACCGTCCATGGACCGGTTTTCCCGGTAATCCGTATTTGAT (site AACCGTCCTAT)”, for which the “recombinant UMI read abundance (log10)” value was found to be 0.117.

Regarding “CACCGTCCATGGACCGGTTTTCCCGGTAATCCGTATTTGAT (site CACCGTCCTAT)”, the “recombinant UMI read abundance (log10)” value amounted to 1.03.

As for “CACCGTCCATGGACCGGTTTTCCCGGTAATCCGTATTTGAT (site GACCGTCCTAT)”, the “recombinant UMI read abundance (log10)” value came out at 0.00326.
